US9920010B2, “CXCR7 receptor modulators” (IDORSIA PHARMACEUTICALS LTD, priority 2013, dated 2018)

molecular target: T1, CXCR7 (Homo sapiens, UniProt P25106); experiment: PathHunter CHO-K1 CXCR7 b-arrestin recruitment assay (CXCR7 agonistic activity); assay type: cell-based; details: PathHunter CHO-K1 CXCR7 b-arrestin cell line
T1 construct: host or cells: CHO-K1 (PathHunter CHO-K1 CXCR7 b-arrestin cell line, stably transfected)
How it was run: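 Stable CHO-K1 line with C-terminally ProLink-tagged CXCR7 and β-arrestin 2–EA fusion; β-arrestin recruitment restores β-gal activity, read by chemiluminescence after 1 h RT detection. Cells seeded 24 h, starved in OPTIMEM 3–4 h, exposed to compounds 90 min at 37 °C in HBSS/HEPES/BSA. Geometric-mean EC50 from repeated measurements.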

T1 sequence (P25106 whole entry): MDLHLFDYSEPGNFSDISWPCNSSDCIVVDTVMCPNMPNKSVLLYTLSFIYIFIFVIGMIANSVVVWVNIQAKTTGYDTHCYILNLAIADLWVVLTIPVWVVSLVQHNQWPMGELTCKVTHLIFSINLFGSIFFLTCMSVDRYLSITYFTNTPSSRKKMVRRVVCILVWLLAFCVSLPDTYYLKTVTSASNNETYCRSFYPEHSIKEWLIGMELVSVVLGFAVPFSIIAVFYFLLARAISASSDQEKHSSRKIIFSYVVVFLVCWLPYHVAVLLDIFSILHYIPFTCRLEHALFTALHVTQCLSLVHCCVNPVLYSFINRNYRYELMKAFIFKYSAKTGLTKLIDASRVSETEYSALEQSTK
T1 sequence (P32121 whole entry partner): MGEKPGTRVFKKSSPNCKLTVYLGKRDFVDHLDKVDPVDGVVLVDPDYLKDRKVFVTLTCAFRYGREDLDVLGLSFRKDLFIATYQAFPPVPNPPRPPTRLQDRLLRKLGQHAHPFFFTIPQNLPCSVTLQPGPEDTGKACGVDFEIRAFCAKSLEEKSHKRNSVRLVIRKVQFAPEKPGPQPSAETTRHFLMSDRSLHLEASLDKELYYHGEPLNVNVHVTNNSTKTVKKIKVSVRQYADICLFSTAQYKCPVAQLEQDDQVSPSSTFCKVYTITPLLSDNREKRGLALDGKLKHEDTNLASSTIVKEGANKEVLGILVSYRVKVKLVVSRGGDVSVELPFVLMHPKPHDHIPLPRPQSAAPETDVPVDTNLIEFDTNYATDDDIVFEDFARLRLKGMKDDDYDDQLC

Compound | EC50 [nM]
CN(C)CCN(Cc1ncccc1Cl)C(=O)CNc1cccc2c1CN(C1CCC1)CC2 [compound 455, N-(3-Chloro-pyridin-2-ylmethyl)-2-(2-cyclobutyl-1,2,3,4-tetrahydro-isoquinolin-8-ylamino)-N-(2-dimethylamino-ethyl)-acetamide] | 10
CNCCN(Cc1ccccc1C(F)(F)F)C(=O)CNc1cccc2c1CCN(C(=O)C1CC1)C2 [Example 385, 2-(2-Cyclopropanecarbonyl-1,2,3,4-tetrahydro-isoquinolin-5-ylamino)-N-(2-methylamino-ethyl)-N-(2-trifluoromethyl-benzyl)-acetamide] | 7
C=CCN(C)CCN(Cc1ccccc1C(F)(F)F)C(=O)CCc1cccc2c1CN(CC=C)CC2 [compound 467, N-[2-(Allyl-methyl-amino)-ethyl]-3-(2-allyl-1,2,3,4-tetrahydro-isoquinolin-8-yl)-N-(2-trifluoromethyl-benzyl)-propionamide] | 14
CC(C)C(=O)N1CCc2c(cccc2OCC(=O)N(CCN(C)C)Cc2ccccc2)C1 [compound 170] | 74
CCN(Cc1ccccc1Cl)C(=O)/C=C/c1cccc2c1CCN(CC1CC1)C2 [compound 139] | 55
COC(=O)N1CCc2cccc(NCC(=O)N(CCN(C)C)Cc3ccccc3)c2C1 [Example 190, 8-({[Benzyl-(2-dimethylamino-ethyl)-carbamoyl]-methyl}-amino)-3,4-dihydro-1H-isoquinoline-2-carboxylic acid methyl ester] | 110
CN(C)CCN(Cc1ccc(Cl)cn1)C(=O)CNc1cccc2c1CCN(CC1CC1)C2 [Example 261, N-(5-Chloro-pyridin-2-ylmethyl)-2-(2-cyclopropylmethyl-1,2,3,4-tetrahydro-isoquinolin-5-ylamino)-N-(2-dimethylamino-ethyl)-acetamide] | 47
O=C(CNc1cccc2c1CCN(CC1CC1)C2)N(Cc1ccccc1C(F)(F)F)CC1(O)CCCC1 [Example 243, 2-(2-Cyclopropylmethyl-1,2,3,4-tetrahydro-isoquinolin-5-ylamino)-N-(1-hydroxy-cyclopentylmethyl)-N-(2-trifluoromethyl-benzyl)-acetamide] | 8
CN(C)CCN(Cc1ccccc1C(F)(F)F)C(=O)CNc1cccc2c1CN(S(=O)(=O)c1ccccc1)CC2 [compound 545] | 80
CCN1CCc2cccc(NCC(=O)N(Cc3ccccc3C(F)(F)F)C3CCN(C)CC3)c2C1 [compound 492, 2-(2-Ethyl-1,2,3,4-tetrahydro-isoquinolin-8-ylamino)-N-(1-methyl-piperidin-4-yl)-N-(2-trifluoromethyl-benzyl)-acetamide] | 41
CCN1CCc2cccc(NCC(=O)N(CCN3CCCC3)Cc3ccccc3C(F)(F)F)c2C1 [compound 489, 2-(2-Ethyl-1,2,3,4-tetrahydro-isoquinolin-8-ylamino)-N-(2-pyrrolidin-1-yl-ethyl)-N-(2-trifluoromethyl-benzyl)-acetamide] | 7
CCC(=O)N1CCc2c(cccc2NCC(=O)N(CCN(C)C)Cc2ccccc2C)C1 [Example 15, N-(2-Dimethylamino-ethyl)-N-(2-methyl-benzyl)-2-(2-propionyl-1,2,3,4-tetrahydro-isoquinolin-5-ylamino)-acetamide] | 15
CN(C)CCN(Cc1ccccc1)C(=O)Cc1cccc2c1CCN(CC1CC1)C2 [Example 1, N-Benzyl-2-(2-cyclopropylmethyl-1,2,3,4-tetrahydro-isoquinolin-5-yl)-N-(2-dimethylamino-ethyl)-acetamide] | 79
CCN1CCc2cccc(OCC(=O)N(CCN(C)C)Cc3ccccc3C(F)(F)F)c2C1 [compound 567, N-(2-Dimethylamino-ethyl)-2-(2-ethyl-1,2,3,4-tetrahydro-isoquinolin-8-yloxy)-N-(2-trifluoromethyl-benzyl)-acetamide] | 4
COCCN1CCc2c(CCC(=O)N(CCN(C)C)Cc3ccccc3C(F)(F)F)cccc2C1 [Example 335, N-(2-Dimethylamino-ethyl)-3-[2-(2-methoxy-ethyl)-1,2,3,4-tetrahydro-isoquinolin-5-yl]-N-(2-trifluoromethyl-benzyl)-propionamide] | 23
CCNC(=O)N1CCc2c(cccc2NCC(=O)N(CCNC)Cc2ncccc2C(F)(F)F)C1 [compound 429, 5-({[(2-Methylamino-ethyl)-(3-trifluoromethyl-pyridin-2-ylmethyl)-carbamoyl]-methyl}-amino)-3,4-dihydro-1H-isoquinoline-2-carboxylic acid ethylamide] | 7
CCOC(=O)CN(Cc1ccccc1)C(=O)/C=C/c1cccc2c1CCN(C(=O)OC(C)(C)C)C2 [Example 94, 5-[(E)-2-(Benzyl-ethoxycarbonylmethyl-carbamoyl)-vinyl]-3,4-dihydro-1H-isoquinoline-2-carboxylic acid tert-butyl ester] | 452
O=C(Cc1cccc2c1CCN(CC1CC1)C2)N(CCN1CCCC1)Cc1ccccc1C(F)(F)F [Example 7, 2-(2-Cyclopropylmethyl-1,2,3,4-tetrahydro-isoquinolin-5-yl)-N-(2-pyrrolidin-1-yl-ethyl)-N-(2-trifluoromethyl-benzyl)-acetamide] | 32

Compound | EC50 [nM]
COCC(C)N1CCc2c(cccc2NCC(=O)N(CCN(C)C)Cc2ccccc2C(F)(F)F)C1 (racemic) [Example 354, rac-N-(2-Dimethylamino-ethyl)-2-[2-(2-methoxy-1-methyl-ethyl)-1,2,3,4-tetrahydro-isoquinolin-5-ylamino]-N-(2-trifluoromethyl-benzyl)-acetamide] | 11
CCN1Cc2c(NCC(=O)N(CCN(C)C)Cc3ccccc3Cl)cccc2C(C)(C)C1 [compound 196] | 264
CCN1CCc2cccc(NCC(=O)N(CCN(C)C)Cc3cccc(F)c3)c2C1 [compound 503] | 65
CN(C)CCN(Cc1ccccc1)C(=O)CNc1cccc2c1CCN(C(=O)c1ccccc1)C2 [compound 125] | 240
CCN1CCc2c(cccc2NCC(=O)N(CCN(C)C)Cc2ccccc2Cl)C1 [compound 133, N-(2-Chloro-benzyl)-N-(2-dimethylamino-ethyl)-2-(2-ethyl-1,2,3,4-tetrahydro-isoquinolin-5-ylamino)-acetamide] | 20
CNCCN(Cc1ncccc1C(F)(F)F)C(=O)CNc1cccc2c1CCN(C(=O)C1CC1)C2 [compound 410, 2-(2-Cyclopropanecarbonyl-1,2,3,4-tetrahydro-isoquinolin-5-ylamino)-N-(2-methylamino-ethyl)-N-(3-trifluoromethyl-pyridin-2-ylmethyl)-acetamide] | 5
CN(C)CCN(Cc1ccc(F)cn1)C(=O)CNc1cccc2c1CCN(CC1CC1)C2 [Example 267, 2-(2-Cyclopropylmethyl-1,2,3,4-tetrahydro-isoquinolin-5-ylamino)-N-(2-dimethylamino-ethyl)-N-(5-fluoro-pyridin-2-ylmethyl)-acetamide] | 33
COC(=O)N1CCc2cccc(OCC(=O)N(CCN(C)C)Cc3ccccc3)c2C1 [Example 204, 8-{[Benzyl-(2-dimethylamino-ethyl)-carbamoyl]-methoxy}-3,4-dihydro-1H-isoquinoline-2-carboxylic acid methyl ester] | 40
COCC(O)CN(Cc1ccccc1C(F)(F)F)C(=O)CNc1cccc2c1CCN(CC1CC1)C2 (centres unmarked) [Example 223, 2-(2-Cyclopropylmethyl-1,2,3,4-tetrahydro-isoquinolin-5-ylamino)-N-(2-hydroxy-3-methoxy-propyl)-N-(2-trifluoromethyl-benzyl)-acetamide] | 10
NCCN(Cc1ccc(C(F)(F)F)cc1)C(=O)CNc1cccc2c1CCN(CC1CC1)C2 [Example 73, N-(2-Amino-ethyl)-2-(2-cyclopropylmethyl-1,2,3,4-tetrahydro-isoquinolin-5-ylamino)-N-(4-trifluoromethyl-benzyl)-acetamide] | 66
CN(C)CCN(Cc1ccccc1)C(=O)CNc1cccc2c1C(=O)N(C)CC2 [compound 184] | 270
O=C(CNc1cccc2c1CN(CC1CC1)CC2)N(CCN1CCC(F)(F)C1)Cc1ncccc1C(F)(F)F [compound 481, 2-(2-Cyclopropylmethyl-1,2,3,4-tetrahydro-isoquinolin-8-ylamino)-N-[2-(3,3-difluoro-pyrrolidin-1-yl)-ethyl]-N-(3-trifluoromethyl-pyridin-2-ylmethyl)-acetamide] | 41
CCN1CCc2cccc(NCC(=O)N(CCN3CCOCC3)Cc3ccccc3C(F)(F)F)c2C1 [compound 510] | 109
CN(C)CCN(Cc1ccccc1)C(=O)COc1cccc2c1CCN(C(=O)OC(C)(C)C)C2 [Example 101, 5-{[Benzyl-(2-dimethylamino-ethyl)-carbamoyl]-methoxy}-3,4-dihydro-1H-isoquinoline-2-carboxylic acid tert-butyl ester] | 148
CN(C)CCN(Cc1cccc(OC(F)(F)F)c1)C(=O)CNc1cccc2c1CN(CC1CC1)CC2 [compound 471, 2-(2-Cyclopropylmethyl-1,2,3,4-tetrahydro-isoquinolin-8-ylamino)-N-(2-dimethylamino-ethyl)-N-(3-trifluoromethoxy-benzyl)-acetamide] | 21
CN1CCc2c(cccc2NCC(=O)N(Cc2ccccc2)CC2CC2)C1 [Example 175, N-Benzyl-N-cyclopropylmethyl-2-(2-methyl-1,2,3,4-tetrahydro-isoquinolin-5-ylamino)-acetamide] | 339
CN(C)CCN(Cc1ncccc1C(F)(F)F)C(=O)CNc1cccc2c1CCN(C1CCOC1)C2 (racemic) [Example 365, rac-N-(2-Dimethylamino-ethyl)-2-[2-(tetrahydro-furan-3-yl)-1,2,3,4-tetrahydro-isoquinolin-5-ylamino]-N-(3-trifluoromethyl-pyridin-2-ylmethyl)-acetamide] | 35
